# In PubChem BioAssay AID1552 (Sanford-Burnham Center for Chemical Genomics, 2009):
# Active and inactive are the calls of the source. How the calls were made is not given here.
# Molecular target: Ubiquitin-conjugating enzyme E2 N (Homo sapiens) (UniProt P61088)
# Experiment: UBE2N binders by NMR, biophysical, purified protein (AID 1552)
# Conditions: NMR binding to purified UBE2N
# Ubiquitin-conjugating enzyme E2 N (Homo sapiens), sequence (P61088 whole entry, looked up): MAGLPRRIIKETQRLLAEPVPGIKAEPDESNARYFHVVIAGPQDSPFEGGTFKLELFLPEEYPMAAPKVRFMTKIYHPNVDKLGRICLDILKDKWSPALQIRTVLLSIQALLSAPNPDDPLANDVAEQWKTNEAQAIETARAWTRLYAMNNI
row,SMILES,Kd
1,Cc1nn(-c2ccccc2)nc1CO,> 4 mM (inactive)
2,CC(=O)c1ccc2c(c1)OCCO2,> 4 mM (inactive)
3,S=C(c1ccc(N2CCOCC2)cc1)N1CCOCC1,> 4 mM (inactive)
4,CNC(=O)c1cc2cccc(OC)c2oc1=O,> 4 mM (inactive)
5,Cn1ncc(SCc2ccco2)c(Cl)c1=O,> 4 mM (inactive)
6,O=c1oc2c(O)c(O)cc3c(=O)oc4c(O)c(O)cc1c4c23,> 4 mM (inactive)
7,O=c1cc(O)nc(SCc2ccccc2)[nH]1,> 4 mM (inactive)
8,O=S(=O)(NCc1ccco1)N1CCOCC1,> 4 mM (inactive)
9,NC(=O)C1CCN(CN2C(=O)c3ccccc3C2=O)CC1,> 4 mM (inactive)
10,O=C(O)Cc1csc(-c2ccccc2)n1,> 4 mM (inactive)
11,Nc1ncnc2nc(SCCN3CCCCC3)[nH]c12,> 4 mM (inactive)
12,CP(C)(=O)c1cccc(C(=O)O)c1,> 4 mM (inactive)
13,CC(C)NC1CS(=O)(=O)CC1O (centres undefined),> 4 mM (inactive)
14,c1ccc(CCc2nc(-c3ccncc3)no2)cc1,> 4 mM (inactive)
15,O=C(O)CN1CCN(C2CCCC2)CC1,> 4 mM (inactive)
16,Cn1nc(C(=O)NC2CCCCC2)c2ccccc2c1=O,> 4 mM (inactive)
17,C=C1C2CC[C@@]3(C)[C@H](c4ccoc4)OC(=O)C[C@]13O[C@H]1CC(=O)C(C)(C)C(CC(=O)OC)C21C (some centres undefined),> 4 mM (inactive)
18,O=[N+]([O-])c1cccc(-c2nnco2)c1,> 4 mM (inactive)
19,CN(C)S(=O)(=O)NCc1ccc2c(c1)OCO2,> 4 mM (inactive)
20,O=C1CS/C(=N/S(=O)(=O)c2ccccc2)N1,> 4 mM (inactive)
21,c1cncc(-c2nnc(-c3cccnc3)nn2)c1,> 4 mM (inactive)
22,Nc1cccc(NC(=O)c2cccs2)c1,> 4 mM (inactive)
23,Cc1cc(Cl)ccc1NC(=O)C(N)=O,> 4 mM (inactive)
24,NC(=O)CSCc1c(Cl)cccc1Cl,> 4 mM (inactive)

row,SMILES,Kd
1,Cc1oc(-c2ccccc2)cc1C(N)=O,> 4 mM (inactive)
2,Cc1nn2c(-c3ccncc3)nnc2c2ccccc12,> 4 mM (inactive)
3,O=C(c1nc2ccccc2s1)N1CCSCC1,> 4 mM (inactive)
4,COc1cc(OC)c2c(c1)O[C@H](c1ccc(OC)c(OC)c1)[C@@H](O)C2,> 4 mM (inactive)
5,C=C[C@@](C)(O)CCC1C(=C)C[C@H](O)C2C(C)(C)CCCC12C (some centres undefined),> 4 mM (inactive)
6,COc1ccc(-c2ccc(OC)cc2C(=O)O)cc1,> 4 mM (inactive)
7,O=C(CC1NC(=O)NC1=O)Nc1ccccc1 (centres undefined),> 4 mM (inactive)
8,c1cncc(Cn2cccc2)c1,> 4 mM (inactive)
9,CC(=O)O[C@@H]1C=C[C@@]2(C)C(C[C@@H](OC(C)=O)[C@@]3(C)C4=CC(=O)O[C@@H](c5ccoc5)[C@]4(C)CCC23)C1(C)C (some centres undefined),> 4 mM (inactive)
10,OCc1cc(-c2cccs2)on1,> 4 mM (inactive)
11,COc1cc(OC)c2c(OC)c(-c3ccc4c(c3)OCO4)c(=O)oc2c1,> 4 mM (inactive)
12,c1ccc(CCc2nc(-c3ccccn3)no2)cc1,> 4 mM (inactive)
13,NC(=O)CSc1ccc(-c2ccccc2)nn1,> 4 mM (inactive)
14,OC/C=C/c1ccc(O)c(O)c1,> 4 mM (inactive)
15,Fc1ccc(Br)cc1/C=N/n1cnnc1,> 4 mM (inactive)
16,Cc1cc(C)n2c(SCc3c(C)noc3C)nnc2n1,> 4 mM (inactive)
17,CN1CCN(CC(=O)Nc2ccccc2)CC1,> 4 mM (inactive)
18,O=C(NCc1ccccc1Cl)c1cnn2cccnc12,> 4 mM (inactive)
19,OC[C@@H](O)[C@@H](O[C@@H]1O[C@H](CO)[C@@H](O)[C@H](O)[C@H]1O)[C@H](O)[C@@H](O)CO,> 4 mM (inactive)
20,CCOc1nc(C)ccc1-c1noc(-c2ccco2)n1,> 4 mM (inactive)
21,Cc1cc(C(=O)Nc2cccnc2)no1,> 4 mM (inactive)
22,CN1CCN(c2ccc(N)cc2)CC1,> 4 mM (inactive)
23,c1ccc(Cn2c(Nn3cnnc3)nc3ccccc32)cc1,> 4 mM (inactive)
24,N#Cc1nc(N2CCCCC2)nc(N2CCOCC2)n1,> 4 mM (inactive)

row,SMILES,Kd
1,O=C(CSc1ccc(Cl)cc1)N1CCOCC1,> 4 mM (inactive)
2,Cc1nn2c(-c3ccco3)nnc2c2ccccc12,> 4 mM (inactive)
3,COC1=CC(=O)C[C@@H](C)[C@]12Oc1c(Cl)c(OC)cc(OC)c1C2=O,> 4 mM (inactive)
4,CN1CCCCC1c1ccc(-c2cccnc2)nc1 (centres undefined),> 4 mM (inactive)
5,OC1(c2ccc(Cl)cc2)CCNCC1,> 4 mM (inactive)
6,O=c1c2ccccc2oc2ccccc12,> 4 mM (inactive)
7,C/C=C(\C)C(=O)O[C@@H]1c2c(ccc3ccc(=O)oc23)OC(C)(C)[C@@H]1OC(C)=O,> 4 mM (inactive)
8,O=C(O)c1ccccc1C(=O)Nc1ccccc1,> 4 mM (inactive)
9,Nc1ccc(Cl)nn1,> 4 mM (inactive)
10,Cc1nnc(SCC(N)=O)c2ccccc12,> 4 mM (inactive)
11,Cc1nc2ccccc2c2c1C(=O)N(C)C2=O,> 4 mM (inactive)
12,O=C(O)CNS(=O)(=O)c1cccs1,> 4 mM (inactive)
13,Cc1cc(C)cc(C(=O)n2cnnc2N)c1,> 4 mM (inactive)
14,S=C(Nc1ccc2nccnc2c1)N1CCOCC1,> 4 mM (inactive)
15,Nc1cccc(C(=O)c2ccccc2)c1,> 4 mM (inactive)
16,CC(C)(O)[C@@H]1[C@H]2OC(=O)[C@@H]1[C@]1(O)C[C@H]3O[C@]34C(=O)O[C@H]2[C@]14C,> 4 mM (inactive)
17,c1ccc(CN2CCC3(CC2)Nc2ccccc2CO3)cc1,> 4 mM (inactive)
18,Cc1c(C(=O)OC(C)C)[nH]c2c1C(=O)CCC2,> 4 mM (inactive)
19,O=C(O)CN1C(=O)c2ccc(C(=O)O)cc2C1=O,> 4 mM (inactive)
20,COC(=O)c1cc2ccccc2cn1,> 4 mM (inactive)
21,Nc1ccc(-n2cccn2)cc1,> 4 mM (inactive)
22,CCOC(=O)c1cc(C)[nH]n1,> 4 mM (inactive)
23,COC(=O)[C@@H]1OC(=O)C2OC23[C@@]1(C)CCC1[C@]2(C)C(C[C@@H](O)[C@]13C)C(C)(C)[C@H](OC(C)=O)C[C@@H]2OC(C)=O (some centres undefined),> 4 mM (inactive)
24,c1ccc2c(c1)[nH]c1cnccc12,> 4 mM (inactive)

row,SMILES,Kd
1,CC(=O)O[C@@H]1CC2C(C)(C)[C@H](O)C=C[C@]2(C)C2CC[C@@]3(C)[C@H](c4ccoc4)OC(=O)C4OC43[C@@]21C (some centres undefined),> 4 mM (inactive)
2,COc1cc2nc[nH]c(=O)c2cc1OC,> 4 mM (inactive)
3,Nc1cccc2nsnc12,> 4 mM (inactive)
4,Nc1nncn1C(=O)c1ccccc1Cl,> 4 mM (inactive)
5,Cn1c(=O)c2ccccc2n(Cc2ccccc2F)c1=O,> 4 mM (inactive)
6,FC(F)(F)c1nnc2ccc(N3CCOCC3)nn12,> 4 mM (inactive)
7,CCOC(=O)C1CCN(Cc2ccccc2)CC1=O (centres undefined),> 4 mM (inactive)
8,O=c1[nH]cnc2c1nnn2Cc1ccccc1,> 4 mM (inactive)
9,O=C(c1ccccc1)N1CCNCC1,> 4 mM (inactive)
10,CC(=O)c1ccc(Cc2cnc(N)s2)cc1,> 4 mM (inactive)
11,CN(c1ccccc1C(=O)N1CCCC1)S(C)(=O)=O,> 4 mM (inactive)
12,CCOC(=O)c1c(C)cc(O)c(C)c1O,> 4 mM (inactive)
13,NC(=O)c1ccc(C(N)=O)c(-c2ccccc2)c1,> 4 mM (inactive)
14,O=C(O)CCC(=O)c1c[nH]c2ccccc12,> 4 mM (inactive)
15,Nc1ncnc2c1ncn2CCN1CCOCC1,> 4 mM (inactive)
16,Cc1nn(C)c(Cl)c1C(O)c1c(C)nn(C)c1Cl,> 4 mM (inactive)
17,Cn1c(=O)n(CC(=O)N2CCOCC2)c2ccccc21,> 4 mM (inactive)
18,CCOC(=O)c1sc(SC)c2c1CCCC2O (centres undefined),> 4 mM (inactive)
19,Nc1ccccc1N1CCOCC1,> 4 mM (inactive)
20,Oc1ccc2c(c1)OCO2,> 4 mM (inactive)
21,COc1ccc(S(=O)(=O)NCCO)cc1,> 4 mM (inactive)
22,NC(C(=O)O)C(O)C(=O)O (centres undefined),> 4 mM (inactive)
23,Cn1c(=O)n(C)c2cc(C(N)=O)ccc21,> 4 mM (inactive)
24,O=C1CCc2ccccc2CN1,> 4 mM (inactive)

row,SMILES,Kd
1,CC(=O)Nc1ccc(-c2cn3ccsc3n2)cc1,> 4 mM (inactive)
2,CC(=O)c1cccc(N=C2NC(=O)CS2)c1,> 4 mM (inactive)
3,O=C(Nc1nnc(-c2ccco2)o1)c1ccc([N+](=O)[O-])o1,> 4 mM (inactive)
4,Cc1cc(NC(=O)c2cnn3cccnc23)no1,> 4 mM (inactive)
5,COC(=O)Nc1nnc(-c2ccncc2)s1,> 4 mM (inactive)
6,NC(=O)c1ccc(N=Cc2ccc[nH]2)cc1,> 4 mM (inactive)
7,COc1cc(/C=C2\SC(=S)NC2=O)ccc1O,> 4 mM (inactive)
8,CC(=O)Nc1ccc(NC(=O)c2ccnn2C)cc1,> 4 mM (inactive)
9,COc1cc2c3cc1Oc1c(OC)c(OC)cc4c1[C@@H](Cc1cccc(c1)Oc1ccc(c(O)c1)C[C@@H]3N(C)CC2)N(C)CC4,> 4 mM (inactive)
10,CC(=O)NCS(=O)(=O)c1ccc(C)cc1,> 4 mM (inactive)
11,O=C1CSC(=Nc2cccc(C(=O)O)c2)N1,> 4 mM (inactive)
12,Cc1c(C)[n+](=O)c(-c2cccs2)c(C)n1[O-],> 4 mM (inactive)
13,Cc1c(/C=N/O)cnn1C,> 4 mM (inactive)
14,CC(=O)Oc1c(C)c(C)c2c(c1C)CCC(C)(CCCC(C)CCCC(C)CCCC(C)C)O2 (centres undefined),> 4 mM (inactive)
15,OCC1CNc2ccccc2O1 (centres undefined),> 4 mM (inactive)
16,O=c1ccc2c([nH]1)CCCC2,> 4 mM (inactive)
17,Cn1nnc2cc(C(=O)N3CCSCC3)ccc21,> 4 mM (inactive)
18,Cc1ccccc1NC(=O)C1CC(=O)N=C(N)S1 (centres undefined),> 4 mM (inactive)
19,CN1CCN(c2ccc(C(=O)O)cc2)CC1,> 4 mM (inactive)
20,CNC(=O)n1ccc(C(=O)N2CCCCC2)n1,> 4 mM (inactive)
21,COc1ccc2cc1Oc1ccc(cc1)C[C@H]1c3cc(c(OC)cc3CCN1C)Oc1c(OC)c(OC)cc3c1[C@H](C2)N(C)CC3,> 4 mM (inactive)
22,O=C1NC(=O)/C(=C\c2ccncc2)S1,> 4 mM (inactive)
23,COC(=O)c1ccc2nccnc2c1,> 4 mM (inactive)
